Measurements from patent US20100210735A1, “Modulating the Activity of Nuclear Receptors in Order to Treat Hypoxia-Related Disorders” (UNIVERSITY OF FLORIDA RESEARCH FOUNDATION, INC., priority 2007, published 2010).
Entries after “also recorded” stand apart in the source; their conditions may differ.

How the values were obtained:
[1] = test system: hypoxic genes in A549 lung cancer cells; assay: Hypoxic gene expression in A549 lung cancer cells; type: cell-based, human; conditions: A549 lung cancer cells treated with DP and RES
From the text: (§1) For Northern blot analysis, nylon membranes carrying total RNA samples were hybridized with probes made from cDNA fragments encoding for VEGF, PGK1, lactate dehydrogenase A(LDHA), Enolase 1 (Eno1), and Glucose transporter 1 (Glut1). The 18s rRNA and β-actin served as loading controls.

ERRs (ERRα, ERRβ, ERRγ) = conditions: literature (Tremblay et al, 2001; Ariazi and Jordan, 2006); cited from earlier work
[2] = test system: HIF-dependent reporter (HRE-Luc); assay: HIF-dependent luciferase reporter (HRE-Luc) assay in SKBR3 cells; type: cell-based, human; conditions: DP (100 uM), DES (50 uM) or 4HT (10 uM)
Protocol: All human cancer cells were maintained in the following basal media (Invitrogen) supplemented with 10% fetal bovine serum: breast cancer cell line MDA-MB-435 in DMEM/F12, melanoma WM266 cells in McCoy's 5A, breast cancer SKBr3 in DMEM. […] The antibiotic G418 was added in the medium (800 ug/mL) for selection of stable dnERR transfectants. Anaerobic culture was achieved using GasPak Pouch System (BD Biosciences). The HIF-dependent reporter HRE-Luc was generated by inserting the two copies of synthetic HRE from PGK1 into a pGL3 luciferase vector. (Promega) Epo-Luc and PGK1-Luc were created by cloning the PCR-amplified HIF-dependent enhancer and promoter regions of Epo and PGK1, respectively, Full-length EST clones encoding ERR-α, -β, -γ, HIF-1α, -2α, -1β were used for in vitro translation (Promega TNT kit), production of GST fusions by cloning into the pGEX vector, and mammalian expression by cloning into modified pcDNA3 vectors with Flag or HA epitope tags. ERR Deletion mutants were generated by PCR. dnERR was constructed by PCR amplification of ERRβ DBD and Engrailed repression domain, followed by a three-way ligation into pcDNA3. Anti-Flag, -HA, -ERRα, and -HIF1α antibodies were obtained from Sigma, Covance, Upstate, and BD Biosciences and Novus, respectively.

ERRγ-HIF association = ERRγ-HIF association (Homo sapiens, UniProt P62508); conditions: DES (50 μM) or 4HT (10 μM); GST pulldown
Chain of ERRγ-HIF association (P62508 whole entry): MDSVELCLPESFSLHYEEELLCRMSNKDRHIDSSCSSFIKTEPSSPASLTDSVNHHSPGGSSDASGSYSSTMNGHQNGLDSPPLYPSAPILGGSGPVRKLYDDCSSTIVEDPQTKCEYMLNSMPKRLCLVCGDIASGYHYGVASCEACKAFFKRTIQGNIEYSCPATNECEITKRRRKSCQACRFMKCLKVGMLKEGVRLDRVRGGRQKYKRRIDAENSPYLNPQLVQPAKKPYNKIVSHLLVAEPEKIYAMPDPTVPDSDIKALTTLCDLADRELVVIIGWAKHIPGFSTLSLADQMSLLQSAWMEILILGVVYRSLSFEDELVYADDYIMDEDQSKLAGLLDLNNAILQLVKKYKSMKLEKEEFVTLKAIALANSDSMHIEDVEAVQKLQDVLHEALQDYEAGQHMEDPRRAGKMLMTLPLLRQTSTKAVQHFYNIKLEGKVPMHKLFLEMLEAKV
Chain of ERRγ-HIF association (Q16665 whole entry partner): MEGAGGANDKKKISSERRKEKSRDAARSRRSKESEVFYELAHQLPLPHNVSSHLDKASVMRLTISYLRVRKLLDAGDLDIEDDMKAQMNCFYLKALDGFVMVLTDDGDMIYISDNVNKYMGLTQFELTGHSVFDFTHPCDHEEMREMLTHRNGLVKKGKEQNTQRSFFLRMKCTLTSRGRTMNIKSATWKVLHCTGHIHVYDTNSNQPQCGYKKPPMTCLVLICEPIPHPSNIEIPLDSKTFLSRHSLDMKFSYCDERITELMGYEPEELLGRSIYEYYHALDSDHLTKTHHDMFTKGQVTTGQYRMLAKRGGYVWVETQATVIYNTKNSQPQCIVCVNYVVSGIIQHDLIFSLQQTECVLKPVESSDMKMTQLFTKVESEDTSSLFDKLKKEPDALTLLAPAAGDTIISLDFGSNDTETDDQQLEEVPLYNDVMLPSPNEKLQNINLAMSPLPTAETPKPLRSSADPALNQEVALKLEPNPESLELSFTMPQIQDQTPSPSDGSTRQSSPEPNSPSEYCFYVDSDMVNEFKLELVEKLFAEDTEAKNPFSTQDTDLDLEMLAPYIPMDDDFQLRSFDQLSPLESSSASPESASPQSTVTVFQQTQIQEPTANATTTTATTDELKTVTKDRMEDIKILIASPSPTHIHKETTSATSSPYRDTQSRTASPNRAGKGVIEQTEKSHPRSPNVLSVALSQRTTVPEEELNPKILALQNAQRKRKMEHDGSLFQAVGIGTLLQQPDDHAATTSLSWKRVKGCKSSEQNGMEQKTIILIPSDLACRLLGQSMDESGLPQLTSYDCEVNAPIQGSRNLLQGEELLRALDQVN
Chain of ERRγ-HIF association (P27540 whole entry partner): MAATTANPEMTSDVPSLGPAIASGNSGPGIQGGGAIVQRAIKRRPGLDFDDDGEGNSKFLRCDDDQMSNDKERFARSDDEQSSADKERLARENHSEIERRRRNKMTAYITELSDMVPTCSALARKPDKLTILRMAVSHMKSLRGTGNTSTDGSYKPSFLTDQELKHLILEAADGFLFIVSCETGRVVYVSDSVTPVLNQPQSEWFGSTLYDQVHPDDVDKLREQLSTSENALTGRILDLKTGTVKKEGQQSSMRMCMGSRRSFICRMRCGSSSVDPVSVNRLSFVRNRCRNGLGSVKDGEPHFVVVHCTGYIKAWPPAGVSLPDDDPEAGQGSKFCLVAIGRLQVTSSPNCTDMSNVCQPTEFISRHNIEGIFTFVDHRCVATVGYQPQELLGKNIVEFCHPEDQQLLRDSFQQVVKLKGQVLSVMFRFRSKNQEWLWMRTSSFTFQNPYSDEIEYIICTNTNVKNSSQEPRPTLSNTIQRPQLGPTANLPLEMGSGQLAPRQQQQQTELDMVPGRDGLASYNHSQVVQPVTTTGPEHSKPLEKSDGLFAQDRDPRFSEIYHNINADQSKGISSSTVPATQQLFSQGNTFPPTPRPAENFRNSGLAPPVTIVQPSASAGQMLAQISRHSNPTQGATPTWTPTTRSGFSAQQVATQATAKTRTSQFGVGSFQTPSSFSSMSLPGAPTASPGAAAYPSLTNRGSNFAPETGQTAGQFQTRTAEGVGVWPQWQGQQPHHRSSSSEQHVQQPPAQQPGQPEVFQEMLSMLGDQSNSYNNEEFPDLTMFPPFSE
Protocol: In vitro translated HIF proteins were mixed with GST or GST-ERR fusions and assayed for binding.
All procedures followed standard molecular biology techniques. […] For GST binding and IP, we used the following binding buffer (20 mM Tris, pH7.5, 150 mM NaCl, 0.5% NP-40, and protease inhibitor cocktail (Roche)). […] In later experiments, we added proteasome inhibitor MG132 (10 uM) into the buffer.
We examined whether mammalian HIF and ERR proteins interact with each other in vitro by the common glutathione S-transferase (GST) pulldown assay. We fused full-length cDNAs of ERRα, β, and γ to GST and generated fusion proteins in bacteria. We assayed them for binding to in vitro translated full-length HIF1α, HIF2α, and HIF1β.
These compounds were tested to determine whether they might interfere with the ERR-HT interaction.

[3] = test system: hypoxic genes (VEGF, PGK1, LDHA, Eno1, Glut1) in MDA-MB-435 cells; assay: Northern blot of hypoxic gene expression in MDA-MB-435 breast cancer cells; type: cell-based, human; conditions: severe hypoxia, DES (50 uM)
From the text: as §1
All human cancer cells were maintained in the following basal media (Invitrogen) supplemented with 10% fetal bovine serum: breast cancer cell line MDA-MB-435 in DMEM/F12, melanoma WM266 cells in McCoy's 5A, breast cancer SKBr3 in DMEM. […] The antibiotic G418 was added in the medium (800 ug/mL) for selection of stable dnERR transfectants. Anaerobic culture was achieved using GasPak Pouch System (BD Biosciences).
All procedures followed standard molecular biology techniques. […] HIFα was not stable.
The HIF-mediated hypoxic response is defined by transcriptional activation of many hypoxic genes. We asked whether inhibition of ERR was capable of blocking hypoxic-induced transcription of endogenous genes.

[4] = test system: hypoxic genes (VEGF, glycolytic enzymes) in SKBR3 cells; assay: Northern blot of hypoxic gene expression in SKBR3 breast cancer cells; type: cell-based, human; conditions: DP (100 uM), DES (50 uM)
From the text: For Northern blot analysis, nylon membranes carrying total RNA samples were hybridized with probes made from cDNA fragments encoding for VEGF, PGK1, lactate dehydrogenase A(LDHA), Enolase 1 (Eno1), and Glucose transporter 1 (Glut1). The 18s rRNA and β-actin served as loading controls. […] All human cancer cells were maintained in the following basal media (Invitrogen) supplemented with 10% fetal bovine serum: breast cancer cell line MDA-MB-435 in DMEM/F12, melanoma WM266 cells in McCoy's 5A, breast cancer SKBr3 in DMEM. […] The antibiotic G418 was added in the medium (800 ug/mL) for selection of stable dnERR transfectants. Anaerobic culture was achieved using GasPak Pouch System (BD Biosciences). All procedures followed standard molecular biology techniques. […] The HIF-mediated hypoxic response is defined by transcriptional activation of many hypoxic genes.

HIF1α = assay: Western blot analysis for HIF1α in SKBR3 cells; type: cell-based, human; conditions: DP and DES
From the text: HIF1α was detected with anti-HIF1α antibody. The same blot was reprobed with an antitubulin antibody. Tubulin served as a loading control. All procedures followed standard molecular biology techniques.

[5] = test system: MDA-MB-435 breast cancer xenograft; assay: Tumor xenograft experiment, human MDA-MB-435 breast cancer cells in SCID mice; type: in vivo; conditions: 750 μg DES daily, oral
Protocol: Tumor volume was measured weekly.
Tumor xenografts were harvested at time of necropsy (after 3 weeks of treatment) and weighed. […] Scale Bars represent average tumor weight.
MDA-MB-435 cells (5×10^6) were resuspended in a mixture of 100 uL of PBS and Matrigel (BD Biosciences, Bedford, Mass.; 2:1 ratio), and injected subcutaneously into the fourth mammary gland fat pad of 6- to 8-week-old female severe combined immunodeficient (SCID) mice. […] The mice bearing tumor xenografts were randomly divided into two groups. […] Tumors were serially measured weekly with a ruler and the tumor volumes were calculated with the following formula: volume (mm^3)=width^2× length/2. After 3 weeks of treatment, the mice were euthanized. All animal studies were approved by the Institutional Animal Care and Use Committee (IACUC) at the University of Florida.
At the end of treatment, tumors were excised and analyzed.

[6] = test system: tumor angiogenesis in MDA-MB-435 xenograft; assay: CD34 immunostaining of tumor xenografts for blood vessel density; type: in vivo, mice; conditions: 750 μg DES daily, oral, after 3 weeks of treatment
Protocol: Tumor transplants were processed and subjected to CD34 immunostaining for blood vessels (brown staining). […] Scale bars, 65 μm. […] Microvessel density was determined by counting the number of CD34 positive blood vessels from four randomly chosen visual fields from each group of tumors. The average number in the fields was taken as the mean of vessel density of the group. Tumors were dissected at time of necropsy, weighed, and fixed in 4% paraformaldehyde in PBS overnight. Samples were dehydrated in 70% ethanol, paraffin embedded, and sectioned ([…]). Deparaffinized sections were stained for CD34 to assess blood vessel density. Briefly, samples were microwaved in sodium citrate (pH 6) for 20 min. for antigen retrieval, and treated with 3% H2O2 at room temperature for 20 min. to quench endogenous peroxidase activity. Sections were then blocked in 1.5% rabbit serum and incubated with rat anti-mouse CD34 antibody (1:100 dilution, clone MEC14.7, BioLegend), followed by biotinylated rabbit anti-rat IgG (1:200 dilution; Vector Laboratories). Detection was done with avidin-biotin-HRP complex (Vector laboratories) and di-aminobenzidin as chromogen. […] As angiogenesis is a key part of hypoxic response and is required to support tumor growth beyond a certain threshold size, we assessed tumor vascularization by performing immunohistochemical staining using anti-CD34 antibody. […]

pregnant female mice = conditions: DES 500 μg/mouse; literature (Tremblay et al, 2001); cited from earlier work

Compound	hypoxia-induced gene transcription [1]	hypoxia-induced gene transcription ([1]; listed as Resveratrol)	activity on ERRs / ERR-coactivator interaction (ERRs (ERRα, ERRβ, ERRγ))	activation of the HIF-dependent reporter by DP-induced HIF stabilization [2]	effect on ERRγ-HIF association (ERRγ-HIF association)	transcriptional induction of HIF target genes [3]	transcriptional induction of HIF target genes [4]	HIF1α protein stabilization by DP (HIF1α)	tumor volumes and growth rate versus vehicle-treated control ([5]; 3 weeks, SCID mice)	tumor xenograft growth upon treatment ([5]; SCID mice)	tumor weight at end of treatment versus vehicle-treated mice ([5]; after 3 weeks of treatment)	micro vascular density in tumors (CD34 positive blood vessels) [6]	effect in pregnant female mice (pregnant female mice)
Oc1ccc(C=Cc2cc(O)cc(O)c2)cc1 [resveratrol]	manifested inhibitory activities	reduced hypoxic gene expression	capable of dissociating coactivator complexes from all three ERRs, albeit at higher concentrations than DES										
4-hydroxytamoxifen [4HT]			selectively inhibits ERRγ	Lack of effects	resistant; also recorded: insensitive								
CC/C(=C(/CC)c1ccc(O)cc1)c1ccc(O)cc1 [DES, diethylstilbestrol]			antagonist of all three ERRs	severely impaired; also recorded: attenuates HIF activity		largely abolished	largely abolished	stabilized normally	dramatic reduction	essentially stopped growing	about 3 times lighter	clear reduction; also recorded: few blood vessels; also recorded: reduced	placental defects
